The target in the assay is T1, human liver glycogen phosphorylase a (HLGPa) (Homo sapiens, UniProt P06737).
T1 construct: creating a full-length cDNA fused at the 5′ end to codons for methionine-glycine-alanine-histidine; 6xHis tag (leader Met-Gly-Ala-His6-Gly-Gly) (N); made in house; host or cells: E. coli (bacterial expression plasmid pTXK1007LTev)
T1 sequence (P06737 2-847 limits assumed): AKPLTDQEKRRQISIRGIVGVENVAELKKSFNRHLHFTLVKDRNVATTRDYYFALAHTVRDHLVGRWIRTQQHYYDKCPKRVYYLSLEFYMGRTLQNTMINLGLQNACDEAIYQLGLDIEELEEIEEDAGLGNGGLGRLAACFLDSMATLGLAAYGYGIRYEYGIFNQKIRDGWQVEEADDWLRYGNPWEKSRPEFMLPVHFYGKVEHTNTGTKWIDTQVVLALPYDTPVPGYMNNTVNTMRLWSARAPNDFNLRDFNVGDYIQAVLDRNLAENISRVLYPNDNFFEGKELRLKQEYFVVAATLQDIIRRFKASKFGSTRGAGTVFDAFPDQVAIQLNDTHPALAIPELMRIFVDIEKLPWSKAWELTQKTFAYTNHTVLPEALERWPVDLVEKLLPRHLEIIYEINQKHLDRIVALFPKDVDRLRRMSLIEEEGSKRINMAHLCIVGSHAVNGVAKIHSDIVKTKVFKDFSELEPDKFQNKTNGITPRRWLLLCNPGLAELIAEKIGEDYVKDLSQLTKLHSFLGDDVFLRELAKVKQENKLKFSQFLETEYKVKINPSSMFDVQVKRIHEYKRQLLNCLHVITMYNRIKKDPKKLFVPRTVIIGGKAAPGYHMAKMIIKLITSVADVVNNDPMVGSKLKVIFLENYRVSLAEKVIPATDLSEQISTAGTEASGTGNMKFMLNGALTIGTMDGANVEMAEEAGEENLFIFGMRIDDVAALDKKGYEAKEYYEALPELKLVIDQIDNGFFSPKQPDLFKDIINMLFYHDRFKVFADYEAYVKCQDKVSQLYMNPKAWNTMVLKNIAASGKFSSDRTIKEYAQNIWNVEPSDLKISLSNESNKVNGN
Kind of assay: Human liver glycogen phosphorylase a enzymatic activity assay (coupled, fluorescent resorufin readout, with and without 10 mM glucose). The class given is biochemical. The conditions noted are these: human liver glycogen phosphorylase a enzymatic activity assay.

SMILES strings stand for the structures.

In turn, `COc1ccc(-c2cc(NC(=O)Nc3c(C)cc(C)cc3C)c(C(=O)N[C@H](C(=O)O)C3CCCCC3)s2)cc1` [Example 439, (2S)-cyclohexyl({[5-[4-(methyloxy)phenyl]-3-({[(2,4,6-trimethylphenyl)amino]carbonyl}amino)-2-thienyl]carbonyl}amino)ethanoic acid] displayed an IC50 of 12 nM.
Consider `COc1ccc(-c2cc(NC(=O)Nc3c(C)cc(C)cc3C)c(C(=O)N[C@H](C(=O)O)C(C)C)s2)cc1` [Example 440], for which the IC50 came out at 100 nM.
Compound `COc1ccc(-c2cc(NC(=O)Nc3c(C)cc(C)cc3C)c(C(=O)N[C@@H](C(=O)O)C(C)C)s2)cc1` [Example 441, N-{[5-[4-(methyloxy)phenyl]-3-({[(2,4,6-trimethylphenyl)amino]carbonyl}amino)-2-thienyl]carbonyl}-D-valine] displayed an IC50 of 2110 nM.
`CC[C@H](C)[C@H](NC(=O)c1sc(-c2ccc(OC)cc2)cc1NC(=O)Nc1c(C)cc(C)cc1C)C(=O)O` [Example 442, N-{[5-[4-(methyloxy)phenyl]-3-({[(2,4,6-trimethylphenyl)amino]carbonyl}amino)-2-thienyl]carbonyl}-L-isoleucine] displayed an IC50 of 51 nM.
With `CCCC[C@H](NC(=O)c1sc(-c2ccc(OC)cc2)cc1NC(=O)Nc1c(C)cc(C)cc1C)C(=O)O` [Example 443, N-{[5-[4-(methyloxy)phenyl]-3-({[(2,4,6-trimethylphenyl)amino]carbonyl}amino)-2-thienyl]carbonyl}-L-norleucine], the IC50 stood at 43 nM. This IC50 and that of the compound before are within 1.5-fold of each other.
Turning to `COc1ccc(-c2cc(NC(=O)Nc3c(C)cc(C)cc3C)c(C(=O)N[C@@H](CC3CCCCC3)C(=O)O)s2)cc1` [Example 444, 3-cyclohexyl-N-{[5-[4-(methyloxy)phenyl]-3-({[(2,4,6-trimethylphenyl)amino]carbonyl}amino)-2-thienyl]carbonyl}-L-alanine], the IC50 was 110 nM.
As for `COc1ccc(-c2cc(NC(=O)Nc3c(C)cc(C)cc3C)c(C(=O)N[C@@H](COC(C)(C)C)C(=O)O)s2)cc1` [Example 445, O-(1,1-dimethylethyl)-N-{[5-[4-(methyloxy)phenyl]-3-({[(2,4,6-trimethylphenyl)amino]carbonyl}amino)-2-thienyl]carbonyl}-L-serine], the IC50 came out at 82 nM.
Consider `COc1ccc(-c2cc(NC(=O)Nc3c(C)cc(C)cc3C)c(C(=O)N[C@H](C(=O)O)[C@@H](C)OC(C)(C)C)s2)cc1` [Example 446, O-(1,1-dimethylethyl)-N-{[5-[4-(methyloxy)phenyl]-3-({[(2,4,6-trimethylphenyl)amino]carbonyl}amino)-2-thienyl]carbonyl}-L-threonine], for which half-maximal inhibition (IC50) required 31 nM. Against the preceding compound, the IC50 is about 2.6-fold lower.
Take `COc1ccc(-c2cc(NC(=O)Nc3c(C)cc(C)cc3C)c(C(=O)N3CCC[C@H]3C(=O)O)s2)cc1` [Example 447, 1-{[5-[4-(methyloxy)phenyl]-3-({[(2,4,6-trimethylphenyl)amino]carbonyl}amino)-2-thienyl]carbonyl}-L-proline]: half-maximal inhibition (IC50) required 26 nM.
For `COc1ccc(-c2cc(NC(=O)Nc3c(C)cc(C)cc3C)c(C(=O)N3CCCC[C@H]3C(=O)O)s2)cc1` [Example 448, (2S)-1-{[5-[4-(methyloxy)phenyl]-3-({[(2,4,6-trimethylphenyl)amino]carbonyl}amino)-2-thienyl]carbonyl}-2-piperidinecarboxylic acid] the value was 370 nM; for `COc1ccc(-c2cc(NC(=O)Nc3c(C)cc(C)cc3C)c(C(=O)NC3(C(=O)O)CC3)s2)cc1` [Example 449, 1-({[5-[4-(methyloxy)phenyl]-3-({[(2,4,6-trimethylphenyl)amino]carbonyl}amino)-2-thienyl]carbonyl}amino)cyclopropanecarboxylic acid], 340 nM.
Regarding `COc1ccc(-c2cc(NC(=O)Nc3c(C)cc(C)cc3C)c(C(=O)NC3(C(=O)O)CCC3)s2)cc1` [Example 450, 1-({[5-[4-(methyloxy)phenyl]-3-({[(2,4,6-trimethylphenyl)amino]carbonyl}amino)-2-thienyl]carbonyl}amino)cyclobutanecarboxylic acid], inhibition was half-maximal at 250 nM (IC50).
Take `COc1ccc(-c2cc(NC(=O)Nc3c(C)cc(C)cc3C)c(C(=O)NC3(C(=O)O)CCCC3)s2)cc1` [Example 451, 1-({[5-[4-(methyloxy)phenyl]-3-({[(2,4,6-trimethylphenyl)amino]carbonyl}amino)-2-thienyl]carbonyl}amino)cyclopentanecarboxylic acid]: the IC50 was determined as 47 nM. Against the preceding compound, the IC50 is about 5.3-fold lower.
`COc1ccc(-c2cc(NC(=O)Nc3c(C)cc(C)cc3C)c(C(=O)NC3(C(=O)O)CCCCC3)s2)cc1` [Example 452, 1-({[5-[4-(methyloxy)phenyl]-3-({[(2,4,6-trimethylphenyl)amino]carbonyl}amino)-2-thienyl]carbonyl}amino)cyclohexanecarboxylic acid] registered an IC50 of 3 nM.
`COc1ccc(-c2cc(NC(=O)Nc3c(C)cc(C)cc3C)c(C(=O)NC3(C(=O)O)CCCCCC3)s2)cc1` [Example 453, 1-({[5-[4-(methyloxy)phenyl]-3-({[(2,4,6-trimethylphenyl)amino]carbonyl}amino)-2-thienyl]carbonyl}amino)cycloheptanecarboxylic acid]: the IC50 stood at 4 nM.
In turn, `COc1ccc(-c2cc(NC(=O)Nc3c(C)cc(C)cc3C)c(C(=O)NC3(C(=O)O)CCCCCCC3)s2)cc1` [Example 454, 1-({[5-[4-(methyloxy)phenyl]-3-({[(2,4,6-trimethylphenyl)amino]carbonyl}amino)-2-thienyl]carbonyl}amino)cyclooctanecarboxylic acid] displayed an IC50 of 1 nM.
For `O=C(Nc1cc2ccccc2cc1C(=O)N[C@H](C(=O)O)C1CCCCC1)Nc1c(Cl)cc(F)cc1Cl` [Example 455, (2S)-cyclohexyl({[3-({[(2,6-dichloro-4-fluorophenyl)amino]carbonyl}amino)-2-naphthalenyl]carbonyl}amino)ethanoic acid] the value was 86 nM; for `C[C@](NC(=O)c1cc2ccccc2cc1NC(=O)Nc1c(Cl)cc(Cl)cc1Cl)(C(=O)O)C1CCCCC1` [Example 456, 2-cyclohexyl-N-{[3-({[(2,4,6-trichlorophenyl)amino]carbonyl}amino)-2-naphthalenyl]carbonyl}-L-alanine], 230 nM; for `Cc1cc(C)c(CC(=O)Nc2cc3ccccc3cc2C(=O)N[C@H](C(=O)O)C2CCCCC2)c(C)c1` [Example 457, (2S)-cyclohexyl{[(3-{[(2,4,6-trimethylphenyl)acetyl]amino}-2-naphthalenyl)carbonyl]amino}ethanoic acid], 64 nM.
On to `Cc1cc(Br)cc(C)c1NC(=O)Nc1cc2ccccc2cc1C(=O)N[C@H](C(=O)O)C1CCCCC1` [Example 458, (2S)-({[3-({[(4-bromo-2,6-dimethylphenyl)amino]carbonyl}amino)-2-naphthalenyl]carbonyl}amino)(cyclohexyl)ethanoic acid], for which half-maximal inhibition (IC50) was put at 220 nM.
`O=C(Cc1c(Cl)ccc(Cl)c1Cl)Nc1cc2ccccc2cc1C(=O)N[C@H](C(=O)O)C1CCCCC1` [Example 459, (2S)-cyclohexyl{[(3-{[(2,3,6-trichlorophenyl)acetyl]amino}-2-naphthalenyl)carbonyl]amino}ethanoic acid]: it took 180 nM to reach half-maximal inhibition (IC50).
As to `CCc1cc(C)c(NC(=O)Nc2cc3ccccc3cc2C(=O)N[C@H](C(=O)O)C2CCCCC2)c(C)c1` [Example 460, (2S)-cyclohexyl({[3-({[(4-ethyl-2,6-dimethylphenyl)amino]carbonyl}amino)-2-naphthalenyl]carbonyl}amino)ethanoic acid], the IC50 stood at 2 nM.
In the case of `C[C@](NC(=O)c1cc2ccccc2cc1NC(=O)Nc1c(Cl)cc(OC(F)(F)F)cc1Cl)(C(=O)O)C1CCCCC1` [Example 465, 2-cyclohexyl-N-[(3-{[({2,6-dichloro-4-[(trifluoromethyl)oxy]phenyl}amino)carbonyl]amino}-2-naphthalenyl)carbonyl]-L-alanine] it was 6 nM; in that of `O=C(Nc1cc2ccccc2cc1C(=O)NC(C(=O)O)[C@H]1CC[C@H](C(F)(F)F)CC1)Nc1c(Cl)cc(OC(F)(F)F)cc1Cl` (stereo partly drawn) [Example 466, {[(3-{[({2,6-dichloro-4-[(trifluoromethyl)oxy]phenyl}amino)carbonyl]amino}-2-naphthalenyl)carbonyl]amino}[trans-4-(trifluoromethyl)cyclohexyl]acetic acid], 13 nM; in that of `O=C(Nc1cc2ccccc2cc1C(=O)NC(C(=O)O)[C@H]1CC[C@@H](C(F)(F)F)CC1)Nc1c(Cl)cc(OC(F)(F)F)cc1Cl` (stereo partly drawn) [Example 467, {[(3-{[({2,6-dichloro-4-[(trifluoromethyl)oxy]phenyl}amino)carbonyl]amino}-2-naphthalenyl)carbonyl]amino}[cis-4-(trifluoromethyl)cyclohexyl]acetic acid], 35 nM.

For the origin of these results see patent publication US20070249670A1, “Glycogen Phosphorylase Inhibitor Compounds and Pharmaceutical Compositions Thereof” (SMITHKLINE BEECHAM CORPORATION, priority 2004, published 2007).
